# Reference: PubChem BioAssay AID624133 (Broad Institute, 2012)
# Where “and” joins values, the source holds several entries; their conditions need not be identical. Equal entries are not always repeated.
# System: Clone20-Shn3RL cells, Renilla luciferase luminescence, 24 h
# Assay: non-specific 3'UTR reporter inhibition in Clone20-Shn3RL – cell-based, Renilla luciferase, cherry-picked, counter-screen for Shn3 inhibitor project, dose response (AID 624133)
row,SMILES,AC50
1,CC(=O)OCC12CC(OC(=O)CC(C)C)C(C)=CC1OC1C(O)C(OC(C)=O)C2(C)C12CO2 (centres undefined),< 0.26 µM
2,CC1=CC2OC3CC4OC(=O)C=CC=CC(=O)OCCC(C)C(O)C(=O)OCC2(CC1O)C4(C)C31CO1 (centres undefined),4.79 µM
3,CC(=O)OC1CC2OC3C=C(C)CCC3(C)C1(C)C21CO1 (centres undefined),3.25 µM
4,CC(=O)OC[C@]12CCC(C)=C[C@H]1O[C@@H]1[C@H](O)[C@@H](OC(C)=O)[C@@]2(C)[C@]12CO2,< 0.26 µM
5,CC(=O)OC1C(=O)OCC23CCC4(C)OC4C2OC2CC(OC(=O)C=CC=CC(=O)OCCC1C)C3(C)C21CO1 (centres undefined),< 0.26 µM
6,CC1=CC2OC3CC4OC(=O)C=CC=CC(C(C)O)OCC(O)C(C)CC(=O)OCC2(CC1O)C4(C)C31CO1 (centres undefined),< 0.26 µM
7,C[C@H]1[C@@H](OS(=O)(=O)O)C[C@@H]2C[C@H]([C@@H](O)c3cc(=O)[nH]c(=O)[nH]3)NC3=NC[C@H]1N32,3.1 µM
8,CCN1CCN(Cc2ccc(NC(=O)c3cc(NC(=O)c4cc5cccc(OC)c5o4)cc(OC)c3)cc2C(F)(F)F)CC1,25.1 µM and 9.12 µM
9,CC1=CC2OC3CC4OC(=O)C=CC=CC(C(C)O)OCC(O)C5(C)OC5C(=O)OCC2(CC1O)C4(C)C31CO1 (centres undefined),< 0.26 µM
